Laboratory results as given in patent US10259781B2, “Imaging agents” (THE REGENTS OF THE UNIVERSITY OF MICHIGAN, priority 2012, dated 2019).

Test system: cardiac sympathetic nerve terminals
Assay: MicroPET imaging and myocardial kinetics (compartmental modeling, Patlak graphical analysis) in monkeys
Type: in vivo, rhesus macaque monkey
Procedure: A series of microPET imaging studies were performed in the macaque model to assess image quality and tracer kinetics. In most of these the time course of the metabolic breakdown of [^18F]4F-MHPG in plasma was also determined. The studies are summarized below in Table 1.
During the development of embodiments of the technology provided herein, the kinetics of [^18F]4F-MHPG in monkey hearts was assessed using either compartmental modeling or Patlak graphical analysis to obtain quantitative measures of regional cardiac sympathetic nerve density.
For some analyses, a simplified compartmental model that assumed irreversible trapping inside nerve terminals was used to estimate the model rate constants K1 (ml/min/g), k2 (min^−1), k3 (min^−1), and a blood volume fraction BV (dimensionless) (see, e.g., FIG. 7). In both the control studies and DMI blocking studies, the model quickly converged to a single global minimum in just a few iterations of the nonlinear regression analysis (FIG. 8). […] This aggregate parameter provides a stable measure of cardiac nerve density that declined in a dose-dependent manner with increasing DMI dose (FIG. 9, “Kinetic modeling”).
For some analyses, Patlak graphical analysis was used, which uses a mathematical transformation of the kinetic data Cp(t) and Ct(t) to generate a Tatlak plot′ having a characteristic linear phase (see, e.g., Patlak and Blasberg (1985) “Graphical evaluation of blood-to-brain transfer constants from multiple-time uptake data. Generalizations.” J Cereb Blood Flow 5: 584-90). The slope of the linear portion of a Patlak plot, Kp (ml/min/g), provides an alternate estimate of the ‘net uptake rate constant’ Ki (ml/min/g). Thus, for the model structure used (FIG. 7), the slope of the Patlak plot is given by Kp≈(K1k3)/(k2+k3).
During the development of embodiments of the technology provided herein, the myocardial kinetics of [^18F]4F-MHPG was assessed using Patlak graphical analysis and metabolite-corrected plasma input functions. In this example, the Patlak plot is highly linear (r^2=1.00) and the estimated Patlak slope Kpatlak=0.252 ml/min/g. […] As such, regional estimates of the Patlak slope from Patlak analysis of the kinetics of [^18F]4F-MHPG serve as robust measures of regional cardiac sympathetic nerve density in patients with heart diseases.

- net uptake rate constant Ki = (K1k3)/(k2+k3) (compartmental modeling, control studies, monkey heart): 0.341 ± 0.041 mL/min/g
- in vivo defluorination (faint uptake in spinal column bones): little in vivo defluorination
- liver uptake compared with [11C]HED or [123I]MIBG (microPET control studies): much lower
- uptake in the lungs and liver (microPET control studies): very low uptake
Compound: N=C(N)NCCc1ccc(F)c(O)c1 [[^18F]4F-MHPG] [4-[^18F]fluoro-meta-hydroxy-phenethylguanidine]
- average measured Patlak slope Kp (control studies, FIG. 11): 0.302 ± 0.031 mL/min/g
- estimated Patlak slope Kpatlak (one control study, rhesus macaque, FIG. 10): 0.252 mL/min/g
